# From US20140357512A1, “HISTONE DEACETYLASE (HDAC) BIOMARKERS IN MULTIPLE MYELOMA” (priority 2013, published 2014)
# Tested on: human myeloma cell line MM.1S
# Test: SILAC acetylated-lysine peptide profiling, HDAC inhibitor vs DMSO (light/heavy ratio)
# Assay type: cell-based
# Text: An embodiment of the invention comprises utilizing the SILAC method in order to quantitate changes in protein expression between two or more populations of cells. The SILAC method is a technique based on mass spectrometry that detects differences in protein abundance among samples using non-radioactive isotopic labeling. The SILAC method is known in the art, and described in detail in Ong et al., “Stable Isotope Labeling by Amino Acids in Cell Culture, SILAC, as a Simple and Accurate Approach to Expression Proteomics”, Molecular & Cellular Proteomics, vol. 1, pp. 376-386 (2002), which is incorporated herein by reference in its entirety.
# Briefly, the SILAC method involves growing two populations of cells in cell culture. The first population of cells is grown in growth media containing normal amino acids (“normal media”). The second population of cells is grown in media lacking a standard essential amino acid (such as lysine), but is then supplemented with a non-radioactive, isotopically labeled form of that essential amino acid (such as lysine labeled with ^13C atoms, rather than normal ^12C atoms), which is called “heavy media”. When the two populations of cells are each growing in the medium, they incorporate the amino acids into all of their proteins. The growth of cells maintained in the heavy media is no different from that in normal media. All peptides containing the heavy amino acids are heavier than their normal counterparts. The cells from each of the two populations of cells are lysed. The lysates from each of the two cell populations are then combined. The combined cell lysates are then analyzed by mass spectrometry. Pairs of chemically identical peptides of different stable isotope composition can be differentiated in a mass spectrometer due to their difference in mass. The ratio of peak intensities in the mass spectrum for such peptide pairs reflects the abundance ratio for the two proteins.
# This example describes SILAC studies that were performed to compare the effects of three different HDAC inhibitors (Compound A, Compound B, and tubastatin A) to a control on a human multiple myeloma cell line. The HDAC inhibitors were also compared amongst themselves to determine differences in their effects.
# A human myeloma cell line MM.1S was grown using either ^12C (light) or ^13C (heavy) lysine containing culture medium. The “heavy” cells were treated with DMSO as the control, and the “light” cells were treated with a single HDAC inhibitor at 37° C. for 6 hours. The heavy and light cells were lysed, and the lysates were mixed in 1:1 ratio and digested with the protease trypsin. The acetylated lysine containing peptides (due to the action of the HDAC inhibitor) in the digested peptide pool were captured by a non-specific anti-acetylated lysine antibody cocktail (the antibodies identify both light and heavy acetylated peptides), and subjected to mass spectrometry analysis in order to identify thousands of individual peptides.
# Thousands of peptides were identified in pairs (^12C and ^13C) due to their known mass differences. The amino acid sequence and quantitative ratio (Light/Heavy) of a given peptide in two differentially treated cell lysates were then determined and annotated with their possible protein (gene) sources.
# As stated above, three HDAC inhibitors (Compound A, Compound B, and Tubastatin A) were used. Thus, the SILAC method was performed three times, with a different HDAC inhibitor compared to a control each time. Accordingly, there are three pairs of quantitative data in the table below, i.e., Compound A:DMSO, Compound B:DMSO, and Tubastatin A:DMSO. A cut-off of 1.30 fold of change (increase or decrease) was then used to determine “changed” or “+” in the table, and any peptides with a fold of change less than 1.3 fold were determined to be “unchanged” or “0” in the table. Those peptides that were not identified were marked as “NA” in the table. […]
smiles,measurement,setting,value
CN1CCc2c(c3ccccc3n2Cc2ccc(C(=O)NO)cc2)C1 [Tub A],light to heavy ratio (L/H ratio) of acetylated peptide AVDCLLDSK(ac)WAK (SEQ ID NO: 518),"Translocation protein SEC62 [60], gene SEC62, inhibitor:DMSO",0.00 log 2
same,light to heavy ratio (L/H ratio) of acetylated peptide VK(ac)FIHDQTSPNPK (SEQ ID NO: 562),"Tricarboxylate transport protein mitochondrial [149], gene SLC25A1, inhibitor:DMSO",0.00 log 2
same,"light to heavy ratio (L/H ratio), log 2 scale, acetylated peptide FGAPQK(ac)DVK (SEQ ID NO: 788)","Trifunctional enzyme subunit alpha mitochondrial [359], gene HADHA, drug:DMSO",0.00
same,"light to heavy ratio (L/H ratio), log 2 scale, acetylated peptide ILQEGVDPK(ac)K (SEQ ID NO: 789)","Trifunctional enzyme subunit alpha mitochondrial [569], gene HADHA, drug:DMSO",0.00
same,light to heavy ratio (L/H ratio) of acetylated peptide VPGK(ac)DTVTK (SEQ ID NO: 308),"Trifunctional enzyme subunit beta mitochondrial [272], HADHB, drug:DMSO",0.40 log 2
same,L/H ratio of acetylated peptide VVVTK(ac)YCDPDSYHR (SEQ ID NO: 114),"U2AF2 [462], log 2 scale, drug vs DMSO",−0.43
same,L/H ratio of acetylated peptide,"VAILK(ac)ANLR (SEQ ID NO: 488), Transitional endoplasmic reticulum ATPase [658], VCP",0.00 log 2
same,"light to heavy ratio (L/H ratio) of acetylated peptide, log 2 scale","VALEIFQHSK(ac)YK (SEQ ID NO: 183), Isoform 2 of 39S ribosomal protein L39 mitochondrial [234], MRPL39",0.64
same,L/H ratio of acetylated peptide FGIAAK(ac)YQIDPDACFSAK (SEQ ID NO: 115),"VDAC1 [224], log 2 scale, drug vs DMSO",0.47
same,L/H ratio of acetylated peptide YK(ac)WCEYGLTFTEK (SEQ ID NO: 116),"VDAC2 [63], log 2 scale, drug vs DMSO",0.59
same,L/H ratio of acetylated peptide (ac)CNTPTYCDLGK(ac)AAK (SEQ ID NO: 6),"VDAC3 [12], log 2 scale, drug vs DMSO",0.52
same,L/H ratio of acetylated peptide YK(ac)VCNYGLTFTQK (SEQ ID NO: 117),"VDAC3 [63], log 2 scale, drug vs DMSO",0.40
same,L/H ratio of acetylated peptide,"VIIVVK(ac)DGPGFYTTR (SEQ ID NO: 401), Trifunctional enzyme subunit alpha mitochondrial [540], HADHA",0.00 log 2
same,L/H ratio of acetylated peptide TNEK(ac)VELQELNDR (SEQ ID NO: 122),"VIM [104], log 2 scale, drug vs DMSO",−0.59
same,L/H ratio of acetylated peptide FANYIDK(ac)VR (SEQ ID NO: 118),"VIM [120], log 2 scale, drug vs DMSO",−0.65
same,L/H ratio of acetylated peptide ILLAELEQLK(ac)GQGK (SEQ ID NO: 119),"VIM [139], log 2 scale, drug vs DMSO",−0.82
same,L/H ratio of acetylated peptide SK(ac)FADLSEAANR (SEQ ID NO: 121),"VIM [294], log 2 scale, drug vs DMSO",−0.60
same,L/H ratio of acetylated peptide LQDEIQNMK(ac)EEMAR (SEQ ID NO: 120),"VIM [373], log 2 scale, drug vs DMSO",−0.72
same,"light to heavy ratio (L/H ratio) of acetylated peptide, log 2 scale","VLK(ac)GNTAEGCVHETQEK (SEQ ID NO: 186), Isoform 1 of Myb-binding protein 1A [935], MYBBP1A",−0.43
same,"light to heavy ratio (L/H ratio) of acetylated peptide, log 2 scale","VLPSIVNEVLK(ac)SVVAK (SEQ ID NO: 195), Prohibitin-2 [142], PHB2",1.00
same,"light to heavy ratio (L/H ratio) of acetylated peptide, log 2 scale","VNLQNNPGAMEHFHMK(ac)LFR (SEQ ID NO: 136), B-cell receptor-associated protein 31 [95], BCAP31",0.52
same,"light to heavy ratio (L/H ratio) of acetylated peptide, log 2 scale","VTEK(ac)IPVR (SEQ ID NO: 168), Isoform Short of Heterogeneous nuclear ribonucleoprotein U [324], HNRNPU",−0.76
same,"light to heavy ratio (L/H ratio) of acetylated peptide, log 2 scale","VVVGK(ac)TFDSIVMDPK (SEQ ID NO: 193), Protein disulfide-isomerase A4 [533], PDIA4",−0.80
same,light to heavy ratio (L/H ratio) of acetylated peptide DLQQYQSQAK(ac)QLFR (SEQ ID NO: 321),"Vesicle-trafficking protein SEC22b [38], SEC22B, drug:DMSO",0.46 log 2
same,light to heavy ratio (L/H ratio) of acetylated peptide TLLIK(ac)TVETR (SEQ ID NO: 269),"Vimentin [445], VIM, drug:DMSO",−0.54 log 2
same,"light to heavy ratio (L/H ratio) of acetylated peptide, log 2 scale","WVFK(ac)EEGVLR (SEQ ID NO: 150), Dolichyl-diphosphooligosaccharide--protein glycosyltransferase 48 kDa subunit [301], DDOST",−0.53
same,light to heavy ratio (L/H ratio) of acetylated peptide KQELLEALTK(ac)HFQD (SEQ ID NO: 355),"X-ray repair cross-complementing protein 6 [605], XRCC6, drug:DMSO",0.00 log 2
same,L/H ratio of acetylated peptide ALQEK(ac)VEIK (SEQ ID NO: 123),"XRCC5 [665], log 2 scale, drug vs DMSO",−0.46
same,"light to heavy ratio (L/H ratio) of acetylated peptide, log 2 scale","YGPFVADFADK(ac)LNEQK (SEQ ID NO: 134), ATP synthase subunit b mitochondrial [126], ATP5F1",−0.45
same,"light to heavy ratio (L/H ratio) of acetylated peptide, log 2 scale","YIAK(ac)QESVEER (SEQ ID NO: 140), Isoform 3 of Coiled-coil domain-containing protein 144A [754], CCDC144A",−0.42
same,"light to heavy ratio (L/H ratio) of acetylated peptide, log 2 scale","YLENGK(ac)ETLQR (SEQ ID NO: 163), Putative HLA class I histocompatibility antigen alpha chain H [200], HLA-H",−0.46
same,"light to heavy ratio (L/H ratio) of acetylated peptide, log 2 scale","YLLYGEK(ac)GTGK (SEQ ID NO: 147), 28S ribosomal protein S29 mitochondrial [130], DAP3",0.46
same,light to heavy ratio (L/H ratio) of acetylated peptide YFLDK(ac)TLTSR (SEQ ID NO: 293),"[3-methyl-2-oxobutanoate dehydrogenase [lipoamide]] kinase mitochondrial [192], BCKDK, drug:DMSO",0.50 log 2
same,"light to heavy ratio (L/H ratio) of acetylated peptide, log 2 scale","[…](ac)PER (SEQ ID NO: 219), cDNA FLJ59739 highly similar to Protein transport protein Sec61 subunit alpha isoform 1 [27], SEC61A1",0.49
same,light to heavy ratio (L/H ratio) of acetylated peptide SAYFAEK(ac)LYK (SEQ ID NO: 292),"annexin A4 [255], ANXA4, drug:DMSO",0.62 log 2
same,light to heavy ratio (L/H ratio) of acetylated peptide ILMSK(ac)PVLSGGTGR (SEQ ID NO: 291),"cDNA FLJ55380 highly similar to Protein kinase C-binding protein 1 [440], ZMYND8, drug:DMSO",0.65 log 2
same,light to heavy ratio (L/H ratio) of acetylated peptide YDGK(ac)WEVEEMK (SEQ ID NO: 274),"cDNA FLJ55574 highly similar to Calnexin [138], CANX, drug:DMSO",−0.49 log 2
same,light to heavy ratio (L/H ratio) of acetylated peptide LNK(ac)PFLFDTK (SEQ ID NO: 327),"cDNA FLJ55574 highly similar to Calnexin [172], CANX, drug:DMSO",0.00 log 2
same,light to heavy ratio (L/H ratio) of acetylated peptide LLASK(ac)SLLNR (SEQ ID NO: 322),"cDNA FLJ56303 highly similar to Translocon-associated protein subunit beta [46], SSR2, drug:DMSO",−0.59 log 2
same,light to heavy ratio (L/H ratio) of acetylated peptide IINEVSK(ac)PLAHHIPVEK (SEQ ID NO: 341),"cDNA FLJ77177 highly similar to Homo sapiens arginine-rich mutated in early stage tumors (ARMET) mRNA [97], MANF, drug:DMSO",0.00 log 2
same,light to heavy ratio (L/H ratio) of acetylated peptide TNVPVK(ac)LFAR (SEQ ID NO: 348),"cDNA FLJ77422 highly similar to Homo sapiens RNA binding protein autoantigenic (hnRNP-associated with lethal yellow homolog (mouse)) transcript variant 1 mRNA (Fragment) [165], RALY, drug:DMSO",0.00 log 2
same,light to heavy ratio (L/H ratio) of acetylated peptide GSK(ac)FYGPAGPYGIFAGR (SEQ ID NO: 265),"membrane-associated progesterone receptor component 2 [159], PGRMC2, drug:DMSO",−0.45 log 2
same,light to heavy ratio (L/H ratio) of acetylated peptide SK(ac)SDPIMLLK (SEQ ID NO: 255),"pyruvate dehydrogenase E1 component subunit alpha somatic form mitochondrial isoform 2 precursor [351], PDHA1, drug:DMSO",0.52 log 2
same,light to heavy ratio (L/H ratio) of acetylated peptide LTSLNVK(ac)YNNDK (SEQ ID NO: 590),"regulator of differentiation 1 isoform 2 [236], gene ROD1, inhibitor:DMSO",0.00 log 2
same,light to heavy ratio (L/H ratio) of acetylated peptide GWLK(ac)SNVSDAVAQSTR (SEQ ID NO: 278),"triosephosphate isomerase isoform 2 [231], TPI1, TPI1P1, drug:DMSO",−0.41 log 2
